The conditions of data set [1]: administered into the parabrachial nucleus in the brainstem; cited from earlier work.
Data set [2] in a line: Percentage weight change in antipsychotic-treated schizophrenia patients. The following applies: Sample B (N = 56), SCZ patients of European ancestry receiving clozapine; study duration 6.00 ± 0.00 weeks; mean ± SD. Type of data set: in vivo, human. As for the experimental part:
In total, 160 participants with psychotic symptoms were included in this study. Diagnosis for schizophrenia (SCZ) was assessed by the Structured Diagnostic Interviews for DSM-IIIR and/or DSM-IV diagnoses (SCID-I,^31,32), except for sample A where diagnoses were based on an interview assessing both DSM and ICD diagnoses. The inclusion criteria for adult probands were DSM-IIIR/IV diagnosis of SCZ or schizoaffective disorder, with psychotic symptoms. A written informed consent was obtained after the complete study description was given to each participant, and the study has been approved by the Research Ethics Board.
Sample A (N=93) was collected at the Charité University Medicine, Berlin, Germany. […] Clozapine serum levels were monitored during the course of the treatment to ascertain compliance. Clinical response was assessed after 6 weeks using the Brief Psychiatric Rating Scale (BPRS)^35. […]
Statistical analyses of demographic variables, which included sex, age at recruitment, and duration of treatment, were performed across samples using Fisher's Exact tests, analysis of variance, or Kruskal-Wallis tests (Table 1). […] We also analyzed the ‘percent weight change’ variable in a meta-analytic approach to take into account heterogeneity across the three patient sample groups using STATA version 8 (e.g.,^48). […] Linkage disequilibrium and r^2 between marker pairs as determined by Haploview 4.1^49. […]

For data set [3] the following is noted: patients treated with second-generation antipsychotics; cited from earlier work.

Here are results for four compounds from patent US20160237499A1, “Genetic Markers for Antipsychotic Induced Weight Gain and Methods for Use Thereof” (CENTRE FOR ADDICTION AND MENTAL HEALTH, priority 2013, published 2016).

With `Cn1ncnc1COc1nn2c(-c3cc(F)ccc3F)nnc2cc1C(C)(C)C` [L-838417], the food intake result in data set [1] is on record as “increased food intake”.

As to `CN1CCN(C2=Nc3cc(Cl)ccc3Nc3ccccc32)CC1` [clozapine], the Percentage weight change in data set [2] is recorded as 3.88 ± 5.770.

Turning to `Cc1ncc2n1-c1ccc(Cl)cc1C(c1ccccc1F)=NC2` [midazolam], the food intake result in data set [1] is “increased food intake”.

Consider `Cc1cc2c(s1)Nc1ccccc1N=C2N1CCN(C)CC1` [olanzapine], for which, in data set [3], the “treated patients experiencing significant weight gain” value is recorded as “about 30%”.
